Assay type in all cases: in vivo
One series has as its system GALIUM APARINE. Briefly: Preemergence herbicidal evaluation, GALAP (Galium). The following applies: four to five weeks after treatment. An excerpt:
(§1) Results of herbicide evaluation are expressed on a rating scale (0-9). The scale is based upon a visual observation of plant stand, vigor, malformation, size, chlorosis and overall plant appearance as compared with a control.
(§2) The preemergence herbicidal activity of the test compounds of the present invention is exemplified by the following tests in which the seeds of a variety of monocotyledonous and dicotyledonous plants are separately mixed with potting soil and planted on top of approximately one inch of soil in separate pint cups. […] The treated cups are then placed on greenhouse benches, watered and cared for in accordance with conventional greenhouse procedures. From four to five weeks after treatment, the tests are terminated and each cup is examined and rated according to the rating system provided in Example 40.
(§3) The compounds evaluated are reported by compound number given in Example 40.

In a further series the test system is SAGITTARIA PYGMAEA, L. In words: Preemergence weed control under flooded paddy conditions, SAGPY (Arrowhead (Pygmaea)). The following applies: preemergence weeds, rated three to four weeks after treatment. In outline:
(§4)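 Seeds or propagules sown in top 0.5 cm of silt loam in undrained containers, flooded 1.5 to 3 cm throughout. Compounds in aqueous/acetone 50/50 v/v pipetted into flood water at about 0.5, 0.25, 0.125 and 0.063 kg/ha. Visual 0-9 rating versus control after three to four weeks in greenhouse.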

Series [1] has as its system CHENOPODIUM ALBUM, L. In words: Preemergence herbicidal evaluation, CHEAL (Lambsquarters, Common). The following applies: four to five weeks after treatment. In outline:
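Seeds mixed with potting soil were planted on about one inch of soil in cups, then sprayed with aqueous acetone solution of test compound at about 0.125 to 0.50 kg per hectare. Plants grown under greenhouse conditions; visual rating on a 0-9 scale versus untreated control at 4-5 weeks.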

Series [2] has as its system ABUTILON THEOPHRASTI, MEDIC. In words: Postemergence herbicidal evaluation, ABUTH (Velvetleaf). The following applies: rated four to five weeks after treatment, averaged. Put shortly: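 Velvetleaf (Abutilon theophrasti) seedlings were raised in jiffy flats for about two weeks and then sprayed postemergence. The test compound was dispersed in a 50/50 acetone/water mixture containing 0.5% TWEEN®20 and applied through a nozzle operating at 40 psi. Plants were kept on greenhouse benches and rated 0-9 four to five weeks after treatment.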

The test system of series [3] is ORYZA SATIVA, L. TEBONNET
In words: Rice tolerance to post-transplant applications under flooded paddy conditions, ORYSAT (Rice, Tebonnet).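 Note: applied to flooded soil surface three days after transplanting.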 The following applies: post-transplant rice, rated three to four weeks after treatment. Put shortly:
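Two ten-day-old Tebonnet rice seedlings were transplanted into silt loam and kept flooded 1.5 to 3 cm deep. Three days after transplanting, the flood surface received the compound in aqueous/acetone 50/50 v/v at about 0.5, 0.25, 0.125 or 0.063 kg/ha. Injury was rated visually on a 0-9 scale versus control after 3-4 weeks.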

The test system of series [4] is CYPERUS SEROTINUS, ROTTB. Briefly: Preemergence weed control under flooded paddy conditions, CYPSE (Flatsedge). The following applies: preemergence weeds, rated three to four weeks after treatment. In outline:
as §4

The test system of series [5] is SETARIA VIRIDIS, (L) BEAU. In words: Postemergence herbicidal evaluation, SETVI (Foxtail, Green). The following applies: rated four to five weeks after treatment, averaged. In outline: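 Seedlings about two weeks old were sprayed with compound in 50/50 acetone/water containing 0.5% Tween 20 at about 0.125-0.500 kg/ha and kept in the greenhouse. Visual injury was rated on a 0-9 scale versus control 4-5 weeks after treatment; repeat tests were averaged.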

Series [6] relates to ECHINOCHLOA ORYZOIDES (ARD.)FRITSCH. In words: Preemergence weed control under flooded paddy conditions, ECHORC (Watergrass (Calif.)). The following applies: preemergence weeds, rated three to four weeks after treatment. In outline:
as §4

Series [7] deals with CHENOPODIUM ALBUM, L. Briefly: Postemergence herbicidal evaluation, CHEAL (Lambsquarters, Common). The following applies: rated four to five weeks after treatment, averaged. In outline:
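Seedlings of common lambsquarters (Chenopodium album) were raised in jiffy flats for roughly two weeks, then sprayed postemergence through a nozzle at 40 psi with test compound dispersed in 50/50 acetone/water containing 0.5% TWEEN®20 surfactant. Plants were kept on greenhouse benches under standard care and rated visually on a 0-9 scale versus controls.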

For the next series, the system named is IPOMOEA SPP. Briefly: Postemergence herbicidal evaluation, IPOSS (Morningglory spp.). The following applies: rated four to five weeks after treatment, averaged. Put shortly: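 Seedlings of morningglory (Ipomoea spp.) were raised in jiffy flats for roughly two weeks. They were then sprayed postemergence through a nozzle at 40 psi with test compound dispersed in 50/50 acetone/water containing 0.5% TWEEN®20 surfactant. Plants were kept on greenhouse benches under standard care and visually rated 0-9 against controls four to five weeks after treatment.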

For series [8], the system named is CASSIA OBTUSIFOLIA, L. In words: Postemergence herbicidal evaluation, CASOB (Sicklepod). The following applies: rated four to five weeks after treatment, averaged. In outline: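 Greenhouse postemergence test. Seedlings (~2 wk) sprayed at 40 psi; dose ~0.125–0.500 kg/ha in acetone/water (1:1), 0.5% TWEEN 20. Scored 0–9 at 4–5 wk.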
A further series has as its system ZEA MAYS L. In words: Preemergence herbicidal evaluation, ZEAMX (Corn, Field). The following applies: four to five weeks after treatment.
From the text: as §1, §2, §3

Series [9] relates to GLYCINE MAX(L) MERR. CV. WILLIAMS
Briefly: Preemergence herbicidal evaluation, GLXMAW (Soybean, Williams). The following applies: four to five weeks after treatment.
From the text: as §1, §2, §3

The subject of series [10] is ECHINOCHLOA CRUS-GALLI, (L) BEAU. In words: Preemergence herbicidal evaluation, ECHCG (Barnyardgrass). The following applies: four to five weeks after treatment.
From the text: as §1, §2, §3

Series [11] relates to CASSIA OBTUSIFOLIA, L. In words: Preemergence herbicidal evaluation, CASOB (Sicklepod). The following applies: four to five weeks after treatment.
From the text: as §1, §2, §3

Series [12] deals with AMBROSIA ARTEMISIIFOLIA, L. Briefly: Postemergence herbicidal evaluation, AMBEL (Ragweed, Common). The following applies: rated four to five weeks after treatment, averaged. Put shortly:
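Common ragweed (Ambrosia artemisiifolia) seedlings were raised in jiffy flats for roughly two weeks, then sprayed postemergence through a nozzle at 40 psi with the test compound dispersed in 50/50 acetone/water carrying 0.5% TWEEN®20. The plants were kept on greenhouse benches under conventional care. Four to five weeks later, injury was rated visually on a 0-9 scale, and repeat tests were averaged.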

Structures are written as SMILES.

`CCOC(=O)Cn1c(=O)n(CC(=O)OC)c(=O)n(-c2cc(Oc3ccc(C(F)(F)F)cc3Cl)ccc2[N+](=O)[O-])c1=O` [Compound 6, 1-Ethyl methyl 5-{5-[(2-chloro-α,α,α-tri-fluoro-p-tolyl)oxy]-2-nitrophenyl}dihydro-2,4,6-trioxo-s-triazine-1,3(2H,4H)-diacetate]: the GALAP rating in the series with GALIUM APARINE (Rate 0.125 kg/ha), in the series with GALIUM APARINE (Rate 0.250 kg/ha) and in the series on GALIUM APARINE (Rate 0.500 kg/ha) was 9.0 each time. For the same compound, the SAGPY herbicidal rating stood at 0.0 in the series with SAGITTARIA PYGMAEA, L. (Rate 0.125 kg/ha); 0.0 in the series on SAGITTARIA PYGMAEA, L. (Rate 0.250 kg/ha); 0.0 in the series with SAGITTARIA PYGMAEA, L. (Rate 0.500 kg/ha). The CHEAL rating was 9.0 in the series on CHENOPODIUM ALBUM, L. [1] (Rate 0.125 kg/ha); 9.0 in the series on CHENOPODIUM ALBUM, L. [1] (Rate 0.250 kg/ha); 9.0 with CHENOPODIUM ALBUM, L. [1] (Rate 0.500 kg/ha). The “ABUTH, herbicide rating (0-9)” value in series [2] (Rate 0.125 kg/ha), in series [2] (Rate 0.250 kg/ha) and in [2] (Rate 0.500 kg/ha) was 9.0 in each case. The “ORYSAT herbicidal rating (rice tolerance)” value (“ORYSAT herbicidal rating” for short) in [3] (Rate 0.125 kg/ha), in series [3] (Rate 0.250 kg/ha) and in series [3] (Rate 0.500 kg/ha) was 1.0 throughout.
For the compound `C#CCn1c(=O)n(CC(=O)OCC)c(=O)n(-c2cc(Oc3ccc(C(F)(F)F)cc3Cl)ccc2[N+](=O)[O-])c1=O` [Compound 7, Ethyl 3-{5-[(2-chloro-α,α,α-trifluoro-p-tolyl)oxy]-2-nitrophenyl}tetrahydro-2,4,6-trioxo-5-(2-propynyl)-s-triazine-1(2H)-acetate], the GALAP rating stood at 4.0 in the series on GALIUM APARINE (Rate 0.125 kg/ha), 8.0 in the series on GALIUM APARINE (Rate 0.250 kg/ha) and 9.0 in the series on GALIUM APARINE (Rate 0.500 kg/ha). The SAGPY herbicidal rating in the series on SAGITTARIA PYGMAEA, L. (Rate 0.125 kg/ha) came to 0.0; with SAGITTARIA PYGMAEA, L. (Rate 0.250 kg/ha) it was 0.0; in the series with SAGITTARIA PYGMAEA, L. (Rate 0.500 kg/ha), 0.0. Moreover, the CYPSE herbicidal rating in series [4] (Rate 0.125 kg/ha) and in series [4] (Rate 0.250 kg/ha) was 0.0 throughout. Besides, the “ORYSAT herbicidal rating” value in series [3] (Rate 0.125 kg/ha) came out at 0.0; in series [3] (Rate 0.250 kg/ha), 0.0; in [3] (Rate 0.500 kg/ha), 1.0.
As to `CCOC(=O)Cn1c(=O)n(C)c(=O)n(-c2cc(Oc3c(F)cc(C(F)(F)F)cc3Cl)ccc2C#N)c1=O` [Compound 11, Ethyl 3-{5-[(2-chloro-α,α,α,6-tetrafluoro-p-tolyl)oxy]-2-cyanophenyl}tetrahydro-5-methyl-2,4,6-trioxo-s-triazine-1(2H)-acetate], the “SETVI, herbicide rating (0-9)” value in series [5] (Rate 0.125 kg/ha), in series [5] (Rate 0.250 kg/ha) and in [5] (Rate 0.500 kg/ha) was 9.0 each time. The ECHORC herbicidal rating in [6] (Rate 0.063 kg/ha), in series [6] (Rate 0.125 kg/ha), in series [6] (Rate 0.250 kg/ha) and in series [6] (Rate 0.500 kg/ha) was 9.0 each time. The SAGPY herbicidal rating with SAGITTARIA PYGMAEA, L. (Rate 0.063 kg/ha) is listed as 0.0; in the series on SAGITTARIA PYGMAEA, L. (Rate 0.125 kg/ha), 0.0; in the series with SAGITTARIA PYGMAEA, L. (Rate 0.250 kg/ha), 0.0; in the series on SAGITTARIA PYGMAEA, L. (Rate 0.500 kg/ha) it was 0.0. Moreover, the “CHEAL, herbicide rating (0-9)” value in the series with CHENOPODIUM ALBUM, L. [7] (Rate 0.125 kg/ha) was found to be 9.0; with CHENOPODIUM ALBUM, L. [7] (Rate 0.250 kg/ha), 9.0; in the series with CHENOPODIUM ALBUM, L. [7] (Rate 0.500 kg/ha) it was 9.0. Also, the “IPOSS, herbicide rating (0-9)” value in the series on IPOMOEA SPP. (Rate 0.125 kg/ha), in the series on IPOMOEA SPP. (Rate 0.250 kg/ha) and in the series with IPOMOEA SPP. (Rate 0.500 kg/ha) was 9.0 in each case. In addition, the “CASOB, herbicide rating (0-9)” value in the series on CASSIA OBTUSIFOLIA, L. [8] (Rate 0.125 kg/ha) worked out at 9.0; in the series with CASSIA OBTUSIFOLIA, L. [8] (Rate 0.250 kg/ha) it was 9.0; in the series on CASSIA OBTUSIFOLIA, L. [8] (Rate 0.500 kg/ha), 9.0. Besides, the ZEAMX rating in the series with ZEA MAYS L. (Rate 0.125 kg/ha), in the series on ZEA MAYS L. (Rate 0.250 kg/ha) and in the series on ZEA MAYS L. (Rate 0.500 kg/ha) was 0.0 each time. In addition, the CHEAL rating is listed as 9.0 in the series with CHENOPODIUM ALBUM, L. [1] (Rate 0.125 kg/ha); 9.0 with CHENOPODIUM ALBUM, L. [1] (Rate 0.250 kg/ha); 9.0 in the series with CHENOPODIUM ALBUM, L. [1] (Rate 0.500 kg/ha). Moreover, the GLXMAW rating in series [9] (Rate 0.125 kg/ha), in [9] (Rate 0.250 kg/ha) and in [9] (Rate 0.500 kg/ha) was 0.0 each time. Besides, the ECHCG rating in series [10] (Rate 0.125 kg/ha), in series [10] (Rate 0.250 kg/ha) and in series [10] (Rate 0.500 kg/ha) was 0.0 throughout. Moreover, the “ABUTH, herbicide rating (0-9)” value in series [2] (Rate 0.125 kg/ha), in series [2] (Rate 0.250 kg/ha) and in series [2] (Rate 0.500 kg/ha) was 9.0 in each case. The CASOB rating in the series with CASSIA OBTUSIFOLIA, L. [11] (Rate 0.125 kg/ha) worked out at 0.0; with CASSIA OBTUSIFOLIA, L. [11] (Rate 0.250 kg/ha) it was 0.0; in the series with CASSIA OBTUSIFOLIA, L. [11] (Rate 0.500 kg/ha), 0.0. Besides, the “ORYSAT herbicidal rating” value in series [3] (Rate 0.063 kg/ha) was found to be 0.0; in series [3] (Rate 0.125 kg/ha), 0.0; in [3] (Rate 0.250 kg/ha), 1.0; in series [3] (Rate 0.500 kg/ha), 1.0. The “AMBEL, herbicide rating (0-9)” value in series [12] (Rate 0.125 kg/ha), in series [12] (Rate 0.250 kg/ha) and in series [12] (Rate 0.500 kg/ha) was 9.0 in each case.

(Values after EP0745595A1, “3-(3-Aryloxyphenyl)-1-(substituted methyl)-s-triazine-2,4,6-oxo or thiotrione herbicidal agents” (American Cyanamid Company, priority 1995, dated 1996).)
